Marks after values point to notes of the source that are not given here.
Columns and labels:
[1] = Thermal Stability; assay type: physicochemical; conditions: 60° C., 10 days, HPLC
[2] = test system: model rats of middle cerebral artery thrombosis (MCAT); assay: Effects on cerebral infarct area of MCAT rats; assay type: in vivo, SD rats; conditions: for cerebral infarct as compared with the model group (in words): 50 mg/kg, P<0.05; for Cerebral infarct tissue weight/total brain weight (%): 24 h after operation, TTC staining; for Inhibition (%): cerebral infarct vs. model group
[3] = The Stability of Aqueous Solution; conditions: for decomposed product detected (in words): after exposed to water for 24 hours; for wt % decomposed product: aqueous solution 0.2 mg/ml
Experimental: Compounds were dissolved in water to form aqueous solutions in a concentration of 0.2 mg/ml, and the amount of decomposed products were measured.
The amounts of decomposed products were determined in accordance with the test described in Pharmacopoeia of P.R. China, 2000 edition, appendix VD of part two, by HPLC method, C18 column, mobile phase of acetonitrile:0.02M sodium dihydrogen phosphate=40:60, detecting wavelength of 230 nm, flow rate of 1 ml/min.

[4] = The Stability to Light; assay type: physicochemical; conditions: 10 days, HPLC
[5] = test system: thrombus of artery-vein bypass in rats; assay: Effects on thrombosis of artery-vein bypass in rats; assay type: in vivo, SD rats; conditions: for Dry-weight of thrombus / Wet-weight of thrombus: once per day for 3 days; for Inhibition (%) of dry-weight of thrombus / Inhibition (%) of wet-weight of thrombus: vs. thrombus model group
Experimental: Testing methods are described in Chen-Qi, “Methodology for Pharmacological Research of Chinese Medicine”,People's Medical Publishing House, Sep. 1993, 1st ed., page 510. […] Equivalent amount of the vehicle was administered to the thrombus model group. The operation was conducted immediately after the final administration. […] The operation was conducted to separate the right common carotid artery and the left external jugular vein. A pre-weighed suture # 0 of 8 cm long was placed into the middle part of a polyethylene tube of 10 cm long. Then the tube was filled with normal saline, and connected at both ends to the cannula of 3 cm long filled with normal saline. One end of the tube was inserted into the left external jugular vein, and another end was inserted into the right common carotid artery. The blood flowed from the right common carotid artery to the polyethylene tube, and then flow back to the left external jugular vein, so as to construct a bypass circulation. […] The wet-weight of the thrombus was obtained by subtracting the weight of the suture and the paper from this total wet weight. […] The thrombus was taken out and weighed to obtain a total dry weight. The dry weight of the thrombus was obtained by subtracting the weight of the suture and the paper form this total dry weight. The results in each group were compared by student's t test. […] Testing Results

[6] = test system: model rats of middle cerebral artery thrombosis (MCAT); assay: Effects on neural symptoms of MCAT rats; assay type: in vivo, SD rats; parameters: key to Scores 6 hours / Scores 24 hours: 0/1 per test, summed (max 4); higher = more severe behavioral disorder; conditions: for Scores 6 hours: behavioral score 6 h after operation (full mark 4); for Scores 24 hours: behavioral score 24 h after operation (full mark 4)
Experimental: (1) Grouping and administration: […] Preventive administration was conducted by gavage one time per day for 3 days prior to the model being established. The model was established on day 4, and a dosage of one day was administered by gavage immediately after the model was established. Another dosage of one day was again administered by gavage 12 hours after the model was established. Equivalent amount of the vehicle was administered to the control group. […] Description of technique and early neuropathological consequences following middle cerebral artery occlusion. J Cereb Blood Flow Metab, 1981, 1: 53), and fixed in lateral decubitus position. A bowtype incision of 1.5 cm long was made at the midpoint between canthus and exterior auditory canal. Temporalis was broken and incised to expose temporal bone. […] The filter paper was removed after 30 min when the vascular became black. The localized tissue was washed with physiological brine, and sutured layer by layer. Then rats were placed back into the cages. By following the modified method of Bederson et al. […] (2) The animals were placed onto a smooth ground, and the resistance of contralateral shoulder to push was examined. “0” was recorded if the resistance of both shoulders were equal and strong; and “1” was recorded if the resistance of contralateral shoulder to push was decreased. […] (4) The tail of the rat was lifted 30 cm high away from the ground, and “1” was recorded if the animals ceaselessly circled contralaterally. “4” was full mark in accordance with the above-mentioned standard. The higher the score was, more severe the behavioral disorder of the animal was. 4. Results: The behavioral scores in each group were compared by student t test.

[7] = 50 mg/kg by gavage, vs. model group
[8] = 100 mg/kg by gavage, vs. model group
[9] = 200 mg/kg by gavage, vs. model group

CCCCC(=O)c1ccccc1C(=O)[O-].[Na+] [Sodium 2-(α-n-pentanonyl)benzoate, sodium 2-(α-n-pentanonyl)benzoate]
decomposed product detected, thermal stability (in words) [1]: no decomposed product
cerebral infarct as compared with the model group (in words) [2]: significantly reduced
decomposed product detected (in words) [3]: no decomposed product
wt % decomposed product ([3]; 0 hr): 0 wt %
wt % decomposed product ([3]; 1 hr): 0 wt %
wt % decomposed product ([3]; 2 hr): 0 wt %
wt % decomposed product ([3]; 4 hr): 0 wt %
wt % decomposed product ([3]; 16 hr): 0 wt %
wt % decomposed product ([3]; 24 hr): 0 wt %
decomposed product detected, stability to light (in words) [4]: no decomposed product

CCCCC(=O)c1ccccc1C(=O)[O-].[K+] [Potassium 2-(α-n-pentanonyl)benzoate, potassium 2-(α-n-pentanonyl)benzoate]
Dry-weight of thrombus ([5]; 50 mg/kg by gavage): 38.3 ± 15.4 mg
Wet-weight of thrombus ([5]; 50 mg/kg by gavage): 208.8 ± 45.3 mg
Inhibition (%) of dry-weight of thrombus ([5]; 50 mg/kg by gavage): 25.34%
Inhibition (%) of wet-weight of thrombus ([5]; 50 mg/kg by gavage): 19.44%
Dry-weight of thrombus ([5]; 100 mg/kg by gavage): 35.6 ± 14.0 mg
Wet-weight of thrombus ([5]; 100 mg/kg by gavage): 192.6 ± 41.2 mg
Inhibition (%) of dry-weight of thrombus ([5]; 100 mg/kg by gavage): 30.60%
Inhibition (%) of wet-weight of thrombus ([5]; 100 mg/kg by gavage): 25.69%
Dry-weight of thrombus ([5]; 200 mg/kg by gavage): 28.3 ± 16.3 mg
Wet-weight of thrombus ([5]; 200 mg/kg by gavage): 157.0 ± 51.4 mg
Inhibition (%) of dry-weight of thrombus ([5]; 200 mg/kg by gavage): 44.83%
Inhibition (%) of wet-weight of thrombus ([5]; 200 mg/kg by gavage): 39.43%
decomposed product detected, thermal stability (in words) [1]: no decomposed product
Cerebral infarct tissue weight/total brain weight (%) ([2]; 50 mg/kg by gavage): 5.63 ± 1.52 %
Inhibition (%) ([2]; 50 mg/kg by gavage): 24.02%
cerebral infarct as compared with the model group (in words) [2]: significantly reduced
Cerebral infarct tissue weight/total brain weight (%) ([2]; 100 mg/kg by gavage): 5.09 ± 2.04 %
Inhibition (%) ([2]; 100 mg/kg by gavage): 35.89%
Cerebral infarct tissue weight/total brain weight (%) ([2]; 200 mg/kg by gavage): 4.38 ± 1.54 %
Inhibition (%) ([2]; 200 mg/kg by gavage): 42.44%
decomposed product detected (in words) [3]: no decomposed product
wt % decomposed product ([3]; 0 hr): 0 wt %
wt % decomposed product ([3]; 1 hr): 0 wt %
wt % decomposed product ([3]; 2 hr): 0 wt %
wt % decomposed product ([3]; 4 hr): 0 wt %
wt % decomposed product ([3]; 16 hr): 0 wt %
wt % decomposed product ([3]; 24 hr): 0 wt %
Scores 6 hours ([6]; 50 mg/kg by gavage): 3.27 ± 0.79
Scores 24 hours ([6]; 50 mg/kg by gavage): 2.91 ± 0.70
Scores 6 hours ([6]; 100 mg/kg by gavage): 3.36 ± 0.67
Scores 24 hours ([6]; 100 mg/kg by gavage): 2.82 ± 0.75
Scores 6 hours ([6]; 200 mg/kg by gavage): 3.20 ± 0.63
Scores 24 hours ([6]; 200 mg/kg by gavage): 2.10 ± 0.32***^,s
decomposed product detected, stability to light (in words) [4]: no decomposed product

N,N′-dibenzylethylenediamine 2-(α-hydroxypentyl)benzoate
Cerebral infarct tissue weight/total brain weight (%) ([2]; 50 mg/kg by gavage): 5.85 ± 2.32%
Inhibition (%) ([2]; 50 mg/kg by gavage): 21.05%
Cerebral infarct tissue weight/total brain weight (%) ([2]; 100 mg/kg by gavage): 5.50 ± 1.82 %
Inhibition (%) ([2]; 100 mg/kg by gavage): 30.73%
Cerebral infarct tissue weight/total brain weight (%) ([2]; 200 mg/kg by gavage): 5.09 ± 2.14 %
Inhibition (%) ([2]; 200 mg/kg by gavage): 33.11%
Scores 6 hours ([6]; 50 mg/kg by gavage): 3.45 ± 0.52
Scores 24 hours ([6]; 50 mg/kg by gavage): 3.09 ± 0.54
% inhibition at hour 24 [6, 7]: 15.11%
alleviation on neural symptoms at 24 hours after the operation (in words) ([6]; 50 mg/kg, vs. model group, P<0.01 or P<0.05): significantly alleviation
Scores 6 hours ([6]; 100 mg/kg by gavage): 3.45 ± 0.52
Scores 24 hours ([6]; 100 mg/kg by gavage): 2.91 ± 0.70
% inhibition at hour 24 [6, 8]: 21.98%
Scores 6 hours ([6]; 200 mg/kg by gavage): 3.36 ± 0.67
Scores 24 hours ([6]; 200 mg/kg by gavage): 2.82 ± 0.87
% inhibition at hour 24 [6, 9]: 24.40%

Calcium 2-(α-hydroxypentyl)benzoate
Cerebral infarct tissue weight/total brain weight (%) ([2]; 50 mg/kg by gavage): 6.39 ± 2.33%
Inhibition (%) ([2]; 50 mg/kg by gavage): 13.77%
Cerebral infarct tissue weight/total brain weight (%) ([2]; 100 mg/kg by gavage): 5.82 ± 1.90 %
Inhibition (%) ([2]; 100 mg/kg by gavage): 26.70%
Cerebral infarct tissue weight/total brain weight (%) ([2]; 200 mg/kg by gavage): 5.41 ± 1.77 %
Inhibition (%) ([2]; 200 mg/kg by gavage): 28.91%
Scores 6 hours ([6]; 50 mg/kg by gavage): 3.45 ± 0.52
Scores 24 hours ([6]; 50 mg/kg by gavage): 3.36 ± 0.50
% inhibition at hour 24 [6, 7]: 7.69%
Scores 6 hours ([6]; 100 mg/kg by gavage): 3.55 ± 0.52
Scores 24 hours ([6]; 100 mg/kg by gavage): 3.09 ± 0.70
% inhibition at hour 24 [6, 8]: 17.16%
Scores 6 hours ([6]; 200 mg/kg by gavage): 3.45 ± 0.52
Scores 24 hours ([6]; 200 mg/kg by gavage): 2.91 ± 0.54
% inhibition at hour 24 [6, 9]: 21.98%

CCCCC(=O)c1ccccc1C(=O)O.CCCCC(=O)c1ccccc1C(=O)O.c1ccc(CNCCNCc2ccccc2)cc1 [2-(α-n-pentanonyl)benzoate of N,N′-dibenzylethylene diamine]
Dry-weight of thrombus ([5]; 50 mg/kg by gavage): 39.0 ± 10.8 mg
Wet-weight of thrombus ([5]; 50 mg/kg by gavage): 207.1 ± 45.3 mg
Inhibition (%) of dry-weight of thrombus ([5]; 50 mg/kg by gavage): 23.98%
Inhibition (%) of wet-weight of thrombus ([5]; 50 mg/kg by gavage): 20.10%
Dry-weight of thrombus ([5]; 100 mg/kg by gavage): 29.9 ± 13.6 mg
Wet-weight of thrombus ([5]; 100 mg/kg by gavage): 157.9 ± 67.9 mg
Inhibition (%) of dry-weight of thrombus ([5]; 100 mg/kg by gavage): 41.72%
Inhibition (%) of wet-weight of thrombus ([5]; 100 mg/kg by gavage): 39.08%
Dry-weight of thrombus ([5]; 200 mg/kg by gavage): 32.3 ± 12.5 mg
Wet-weight of thrombus ([5]; 200 mg/kg by gavage): 191.7 ± 34.8 mg
Inhibition (%) of dry-weight of thrombus ([5]; 200 mg/kg by gavage): 37.04%
Inhibition (%) of wet-weight of thrombus ([5]; 200 mg/kg by gavage): 26.04%
decomposed product detected, thermal stability (in words) [1]: no decomposed product
Cerebral infarct tissue weight/total brain weight (%) ([2]; 50 mg/kg by gavage): 5.14 ± 2.17 %
Inhibition (%) ([2]; 50 mg/kg by gavage): 30.63%
cerebral infarct as compared with the model group (in words) [2]: significantly reduced
Cerebral infarct tissue weight/total brain weight (%) ([2]; 100 mg/kg by gavage): 4.68 ± 1.69 %
Inhibition (%) ([2]; 100 mg/kg by gavage): 41.06%
Cerebral infarct tissue weight/total brain weight (%) ([2]; 200 mg/kg by gavage): 4.60 ± 1.26 %
Inhibition (%) ([2]; 200 mg/kg by gavage): 39.55%
Scores 6 hours ([6]; 50 mg/kg by gavage): 3.45 ± 0.69
Scores 24 hours ([6]; 50 mg/kg by gavage): 2.91 ± 0.70
% inhibition at hour 24 [6, 7]: 20.05%
Scores 6 hours ([6]; 100 mg/kg by gavage): 3.45 ± 0.52
Scores 24 hours ([6]; 100 mg/kg by gavage): 2.36 ± 0.67
% inhibition at hour 24 [6, 8]: 36.73%
Scores 6 hours ([6]; 200 mg/kg by gavage): 3.27 ± 0.79
Scores 24 hours ([6]; 200 mg/kg by gavage): 2.55 ± 0.52
% inhibition at hour 24 [6, 9]: 31.64%
decomposed product detected, stability to light (in words) [4]: no decomposed product

Reference: patent US20070203233A1, “NOVEL 2-(alpha-N-PENTANONYL)BENZOATES, THEIR PREPARATION AND USE” (priority 2004, published 2007)
